In patent US9957325B2, “Synthetic antibody mimic peptides” (Formurex, Inc., priority 2015, dated 2018):
Read-outs that look alike come from different tables or passages of the source. Where a SMILES comes first, the peptide text is derived from it. The star is where a group is joined. X1 = CC[C@H](C)[C@@H]([C@@H](CC(=O)N1CCC[C@H]1[C@H](OC)[C@@H](C)C(=O)N[C@H](C)[C@@H](OC(=O)CCCCC(=NNC(=O)CCCCCN1C(=O)CC(*)C1=O)c1ccccc1)c1ccccc1)OC)N(C)C(=O)[C@@H](NC(=O)[C@H](C(C)C)N(C)C)C(C)C

What was measured:
MDA-MB-468 cells [1] = assay: In vitro cytotoxicity, sulforhodamine B assay; assay type: cell-based; settings: MDA-MB-468, 72 h, SRB
Protocol: (§1) Cells were cultured to 80% confluency in T75 culture flasks using Dulbecco's Modified Eagle's Medium (DMEM) as growth medium. The cell density was determined using a Coulter Counter. The cells were seeded onto 96 well plates and grown for 24 h. to 50% confluency. […] At the end of the incubation period, the cells were fixed using 10% trichloroacetic acid, followed by washing with distilled water and drying. The cellular proteins were stained using 50 μL of 0.4% sulforhodamine B (SRB) in 1% acetic acid. Unbound SRB was washed with 1% acetic acid and the plates were dried overnight. The cell-bound SRB was then solubilized using 200 μL of 10 mM unbuffered Tris base solution. SRB absorbance was measured at 560 nm wavelength using a Plate Reader. The percent viability of cells was plotted as a function of log concentration and data was analyzed in GraphPad Prism Version 5.0 software (GraphPad Software, Inc., California, USA) using a nonlinear-regression curve fit (variable slope four parameter equation).

A431 cells [2] = settings: for IC50: A431, 72 h, SRB; for more potent than the drug alone: EGFR over-expressing cancer cells (A431, MDA-MB-468), vs auristatin E
Protocol: as §1

HEK 293 cells = settings: for IC50: HEK 293, 72 h, SRB
Protocol: as §1

[3] = target: T1, HER2 recombinant human protein (Homo sapiens, UniProt P04626); assay: Surface plasmon resonance on immobilized HER2; assay type: binding; settings: SPR
T1 construct: purchased Life Technologies / Thermo Fisher Scientific Inc
T1 sequence (P04626 23-1255): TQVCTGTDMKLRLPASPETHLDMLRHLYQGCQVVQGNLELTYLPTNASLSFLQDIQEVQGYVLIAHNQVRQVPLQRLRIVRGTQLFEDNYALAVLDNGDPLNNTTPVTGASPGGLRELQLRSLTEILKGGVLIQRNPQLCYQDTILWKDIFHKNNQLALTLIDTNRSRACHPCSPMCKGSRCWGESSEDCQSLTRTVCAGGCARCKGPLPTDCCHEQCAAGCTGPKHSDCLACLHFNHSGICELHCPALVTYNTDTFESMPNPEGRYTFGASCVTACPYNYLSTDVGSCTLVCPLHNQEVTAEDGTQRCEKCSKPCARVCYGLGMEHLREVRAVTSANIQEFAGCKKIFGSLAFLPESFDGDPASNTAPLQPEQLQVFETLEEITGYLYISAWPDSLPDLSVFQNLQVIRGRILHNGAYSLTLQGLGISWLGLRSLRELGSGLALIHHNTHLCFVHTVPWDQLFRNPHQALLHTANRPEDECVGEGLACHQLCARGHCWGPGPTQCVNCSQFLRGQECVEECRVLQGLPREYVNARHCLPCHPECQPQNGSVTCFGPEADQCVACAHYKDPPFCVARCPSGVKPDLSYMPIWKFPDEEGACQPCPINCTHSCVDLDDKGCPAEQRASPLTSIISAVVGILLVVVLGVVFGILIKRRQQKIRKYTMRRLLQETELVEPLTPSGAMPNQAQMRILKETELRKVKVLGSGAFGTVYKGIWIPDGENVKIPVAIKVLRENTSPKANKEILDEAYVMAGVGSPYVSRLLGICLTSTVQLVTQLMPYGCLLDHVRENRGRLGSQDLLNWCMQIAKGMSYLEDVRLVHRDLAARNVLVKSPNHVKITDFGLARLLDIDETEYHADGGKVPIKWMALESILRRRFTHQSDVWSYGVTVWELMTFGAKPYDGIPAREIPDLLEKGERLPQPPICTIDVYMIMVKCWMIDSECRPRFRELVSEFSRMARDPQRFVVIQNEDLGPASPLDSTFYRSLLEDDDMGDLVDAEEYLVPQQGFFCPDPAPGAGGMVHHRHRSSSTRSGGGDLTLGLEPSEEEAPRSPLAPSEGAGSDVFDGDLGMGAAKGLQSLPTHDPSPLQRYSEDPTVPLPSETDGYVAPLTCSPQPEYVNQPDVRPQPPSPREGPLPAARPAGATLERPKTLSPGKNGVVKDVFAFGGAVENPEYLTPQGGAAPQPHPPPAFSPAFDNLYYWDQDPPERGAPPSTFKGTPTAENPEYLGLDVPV
Protocol: All experiments were carried out at 25° C. with a data collection rate of 2 Hz. The running method was created using the Autolink control software. PBS with 0.01% Tween 20 (pH7.4) buffers were filtered and thoroughly degassed before use. HER2 recombinant human protein was covalently attached to the left channel of a 500,000 Da carboxymethylated dextran sensor chip using EDC and NHS chemistries. Then, the chip was blocked by passing EA for 8 minutes at a rate of 10 μL/min. […] Triplicate determinations were done at each concentration. The bound surface was regenerated by sequential injections of 10 mM glycine in PBST (pH 2.5).
The sensorgrams from SPR were globally treated using Scrubber 2® software where all traces were zeroed, cropped, aligned, and referenced. Kinetic constants ka and kd were determined by global fitting analyses of the titration curves using the 1:1 Lagmurian interaction model taking into account the mass transport. The equilibrium dissociation constant (KD) was calculated from the kd/ka ratio.

[4] = tested on: MDA-MB-361, ZR-75-1 and HEK293 cells; assay: Confocal microscopy binding of FITC labeled HER2-PEPs; assay type: cell-based; settings: 10 μM FITC labeled peptide, 15 minutes at 37° C.
Protocol: MDA-MB-361, ZR-75-1 and […] cells were grown in T75 flasks at 37° C. and 5% CO2. Upon reaching 80% confluency, the cells were counted and seeded onto coverslips placed inside 6-well culture plates at a density of 80,000 cells/well. The cells were allowed to attach for 24 hours before the experiment was performed. Upon attachment, the cells were washed twice with HBSS and serum free media.
Stock solutions of FITC labeled HER2-PEPs and control peptide were prepared with dimethyl sulfoxide (DMSO). Stock solutions were diluted with serum free media medium several times and less than 1% of DMSO was presented in the final solutions of all peptides (10 μM), which were added to the 6-well culture plates.
After incubating 15 minutes at 37° C., the medium was removed and the cells were washed twice with HBSS. The cells were then treated with a 2.5 μg/mL solution of Alexa fluor 594 wheat germ agglutinin in HBSS for 10 minutes to stain the cell plasma membrane. The dye solution was removed and cells were washed twice with HBSS. The cells were then fixed by performing a 15 minute treatment using 4% paraformaldehyde solution prepared in HBSS. The cells were washed with HBSS followed by a final wash of distilled water. […] The FITC fluorescence was visualized using 491 nm and the Alexa fluor 594 fluorescence was visualized using 561 nm wavelength filter.

[5] = Peptide-drug conjugate pH hydrolysis study; assay type: physicochemical
Protocol: Peptide-drug conjugate was evaluated for half-life determination at pH 5 and 7.4. For this, a 1 mg/mL concentration of PDC was incubated in ammonium bicarbonate buffers, pH 5 and 7.4. Degradation of PDC was evaluated by calculating the area under the curve after 0, 0.5, 1, 2, 4, 6 and 48 hours using HPLC with a gradient method, with TEAA buffer pH 7 and acetonitrile.

Recombinant human EGFR = Recombinant human EGFR (Homo sapiens, UniProt P00533); assay: Surface plasmon resonance on immobilized EGFR; settings: SPR, EGFR as immobilized surface, 1:1 binding model, 25° C.
Chain of Recombinant human EGFR (P00533 25-1210): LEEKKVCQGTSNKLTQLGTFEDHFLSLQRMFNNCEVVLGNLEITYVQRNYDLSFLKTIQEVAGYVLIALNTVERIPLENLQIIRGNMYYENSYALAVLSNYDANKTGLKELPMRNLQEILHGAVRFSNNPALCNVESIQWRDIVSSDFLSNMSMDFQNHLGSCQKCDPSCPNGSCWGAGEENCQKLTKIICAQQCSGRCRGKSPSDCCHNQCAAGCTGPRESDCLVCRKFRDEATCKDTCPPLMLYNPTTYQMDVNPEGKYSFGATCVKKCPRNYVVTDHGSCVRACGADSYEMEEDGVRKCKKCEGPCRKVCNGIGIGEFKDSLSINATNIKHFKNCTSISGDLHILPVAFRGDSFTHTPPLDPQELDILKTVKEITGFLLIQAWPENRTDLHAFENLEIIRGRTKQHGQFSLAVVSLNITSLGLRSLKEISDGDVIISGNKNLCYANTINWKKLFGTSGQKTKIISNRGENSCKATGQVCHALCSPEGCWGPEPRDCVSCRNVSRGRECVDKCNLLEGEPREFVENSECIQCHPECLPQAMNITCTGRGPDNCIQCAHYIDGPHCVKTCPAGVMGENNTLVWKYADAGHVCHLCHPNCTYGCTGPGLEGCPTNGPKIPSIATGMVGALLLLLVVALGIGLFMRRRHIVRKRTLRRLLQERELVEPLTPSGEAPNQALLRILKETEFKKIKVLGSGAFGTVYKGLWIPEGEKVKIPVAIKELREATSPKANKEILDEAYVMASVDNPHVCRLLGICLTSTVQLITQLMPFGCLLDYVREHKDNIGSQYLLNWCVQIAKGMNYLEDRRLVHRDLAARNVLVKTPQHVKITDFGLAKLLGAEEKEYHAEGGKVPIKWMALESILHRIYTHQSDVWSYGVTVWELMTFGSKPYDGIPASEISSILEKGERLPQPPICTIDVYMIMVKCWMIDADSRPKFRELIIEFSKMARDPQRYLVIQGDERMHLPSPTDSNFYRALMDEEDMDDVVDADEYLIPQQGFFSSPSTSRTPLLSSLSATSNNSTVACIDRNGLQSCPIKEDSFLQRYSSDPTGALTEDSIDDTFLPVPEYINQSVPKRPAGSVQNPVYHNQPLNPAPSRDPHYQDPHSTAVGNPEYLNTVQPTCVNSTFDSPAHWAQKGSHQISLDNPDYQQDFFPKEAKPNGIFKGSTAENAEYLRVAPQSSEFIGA
Protocol: Binding affinity constant of antibody mimics was calculated by surface plasmon resonance (Reichert SR7000DC). A carboxymethyl dextran gold sensor chip was activated by N-hydroxysuccinimide (NHS) and N-ethyl-N″-[3-([…])propyl] carbodiimide (EDC) at 25° C. using phosphate buffered saline pH 7.4 with 0.05% tween 20 as running buffer. […] Unreactive sites were blocked by flowing over the chip 1 M ethanolamine pH 8.5 at 10 μL/min for 8 minutes. […] The resulting sensograms were globally fitted using Scrubber2 software (BioLogic Software, Campbell, Australia) in a 1:1 binding model to determine the association rate (kon), dissociation rate (kd or koff), and dissociation constant KD.

[6] = tested on: A431, MDA-MB-468 and HEK 293 cells; assay: Confocal binding/internalization of FITC labeled peptides; assay type: cell-based
Protocol: (§2) A431, MDA-MB-468 and HEK 293 cells were cultured in 75 cm^2 culture flasks in DMEM supplemented with 10% FBS. For binding/internalization studies, 5×10^5 cells were seeded in cover slips in 6 well culture plates overnight. After the medium was removed, the cells were washed with HBSS and then cells were treated with FITC labeled antibody mimic and scrambled (control) peptide in serum free DMEM for 30 minutes at 37° C. Cells were then washed with HBSS to remove any unbound peptides and incubated with AlexaFluor 594 wheat germ agglutinin to stain cell membranes. Cells were fixed with 4% paraformaldehyde and cover slips were mounted on slides which contain a drop of SlowFade®. Cells were then imaged with an inverted Leica DMIRE2 fluorescence microscope (Leica Biosystems Richmond Inc., Richmond, USA) using a Yokogawa CSUX1 confocal scanner unit. For flow cytometry studies, cells were washed with HBSS after incubation with antibody mimics, control peptide for 30 minutes, and dissociated using trypsin-EDTA. Cells were then centrifuged at 500 g for 5 min. Supernatant was removed and cell pellets were re-suspended in FACS solution. The cell suspension was then analyzed on a Beckman Coulter flow cytometer and data were analyzed using the Cell Questpro. A total of 10000 events were collected monitoring FITC.

MDA-MB-468 cells [7] = assay: Flow cytometry uptake of FITC labeled peptides; assay type: cell-based
Protocol: as §2

A431 cells [8] = assay: Flow cytometry uptake of FITC labeled peptides; assay type: cell-based
Protocol: as §2

CC[C@H](C)[C@@H]([C@@H](CC(=O)N1CCC[C@H]1[C@H](OC)[C@@H](C)C(=O)N[C@H](C)[C@@H](O)c1ccccc1)OC)N(C)C(=O)[C@@H](NC(=O)[C@H](C(C)C)N(C)C)C(C)C [Auristatin E, reference compound]
IC50 (MDA-MB-468 cells [1]): 0.0117 nM
IC50 (A431 cells [2]): 0.0246 nM
IC50 (HEK 293 cells): 0.0626 nM

CC(C)C[C@H](NC(=O)[C@H](Cc1ccccc1)NC(=O)CNC(=O)[C@H](C)NC(=O)[C@H](CC(=O)O)NC(=O)[C@H](CC(N)=O)NC(=O)[C@@H]1CCCN1C(=O)[C@H](Cc1ccc(O)cc1)NC(=O)CNC(=O)[C@H](CCC(N)=O)NC(=O)[C@@H]1CCCN1C(=O)[C@H](CO)NC(=O)[C@@H](N)[C@@H](C)O)C(=O)NCC(=O)N[C@@H](CCCNC(=N)N)C(=O)N[C@@H](CCC(=O)O)C(=O)N[C@@H](CO)C(=O)N[C@H](C(=O)N[C@@H](CC(N)=O)C(=O)O)[C@@H](C)O [HER2-Pep22] (H-TSPQGYPNDAGFLGRESTN-OH; N-terminus and C-terminus assumed)
KD higher than that of HER2-PEP11 and HER2-PEP21 [3]: about 2000 fold
kd ([3]; HER2 immobilized, 1:1 model, 25° C.): 0.0181 s⁻¹
kon ([3]; HER2 immobilized, 1:1 model, 25° C., read-out: ka): 131 M⁻¹ s⁻¹
binding to cells, confocal microscopy [4]: no binding to all the three cell lines

CC[C@H](C)[C@@H]([C@@H](CC(=O)N1CCC[C@H]1[C@H](OC)[C@@H](C)C(=O)N[C@H](C)[C@@H](OC(=O)CCCCC(=NNC(=O)CCCCCN1C(=O)CC(SC[C@H](NC(=O)[C@H](C)NC(=O)[C@H](CCC(=O)O)NC(=O)[C@H](Cc2ccc(O)cc2)NC(=O)[C@H](CC(=O)O)NC(=O)[C@H](Cc2ccc(O)cc2)NC(=O)[C@H](Cc2ccccc2)NC(=O)[C@@H](NC(=O)CNC(=O)[C@@H]2CCCN2C(=O)CNC(=O)[C@H](CC(N)=O)NC(=O)[C@H](CCC(=O)O)NC(=O)CNC(=O)[C@H](CO)NC(=O)[C@@H](N)Cc2c[nH]c3ccccc23)[C@@H](C)O)C(=O)O)C1=O)c1ccccc1)c1ccccc1)OC)N(C)C(=O)[C@@H](NC(=O)[C@H](C(C)C)N(C)C)C(C)C (some centres unmarked) [PDC] (H-WSGENGPGTFYDYEAC(X1)-OH; N-terminus and C-terminus assumed)
half-life at 1 mg/mL ([5]; pH 5, ammonium bicarbonate buffer): 168 min
half-life at 1 mg/mL ([5]; pH 7.4, ammonium bicarbonate buffer): > 2880 min
more potent than the drug alone (A431 cells [2]): approximately 10 fold
more potent than the drug alone (A431 cells [2]; listed as Peptide-drug conjugate): around 10 fold
potency lower than drug alone (HEK 293 cells; control cells (HEK 293), vs auristatin E): more than 100 fold

C[C@H](NC(=O)[C@H](CCC(=O)O)NC(=O)[C@H](Cc1ccc(O)cc1)NC(=O)[C@H](CC(=O)O)NC(=O)[C@H](Cc1ccccc1)NC(=O)[C@H](Cc1ccc(O)cc1)NC(=O)CNC(=O)[C@@H]1CCCN1C(=O)CNC(=O)[C@H](CC(N)=O)NC(=O)[C@H](CCC(=O)O)NC(=O)CNC(=O)[C@H](CO)NC(=O)[C@@H](N)Cc1c[nH]c2ccccc12)C(=O)O [Pep6] (H-WSGENGPGYFDYEA-OH; N-terminus and C-terminus assumed)
koff (Recombinant human EGFR): 0.00581 s⁻¹
kon (Recombinant human EGFR): 1210 M⁻¹ s⁻¹

C[C@H](NC(=O)[C@H](CCC(=O)O)NC(=O)[C@H](Cc1ccc(O)cc1)NC(=O)[C@H](CC(=O)O)NC(=O)[C@H](Cc1ccc(O)cc1)NC(=O)[C@H](Cc1ccccc1)NC(=O)CNC(=O)[C@@H]1CCCN1C(=O)CNC(=O)[C@H](CC(N)=O)NC(=O)[C@H](CCC(=O)O)NC(=O)CNC(=O)[C@H](CO)NC(=O)[C@@H](N)Cc1c[nH]c2ccccc12)C(=O)O [Pep11] (H-WSGENGPGFYDYEA-OH; N-terminus and C-terminus assumed)
Kd (Recombinant human EGFR): 252 nM
koff (Recombinant human EGFR): 0.0252 s⁻¹
kon (Recombinant human EGFR): 100000 M⁻¹ s⁻¹
IC50 (MDA-MB-468 cells [1]): 420 nM
IC50 (A431 cells [2]): 388 nM
IC50 (HEK 293 cells): 1040 nM
lower potency towards control cells compared to cancer cells (HEK 293 cells; HEK 293 vs cells that over-express EGFR): 2- to 3 fold
binding to cells after cetuximab pre-incubation ([6]; EGFR blocked by cetuximab for 30 min, A431 and MDA-MB-468): inhibited/decreased

C[C@H](NC(=O)[C@H](CCC(=O)O)NC(=O)[C@H](Cc1ccc(O)cc1)NC(=O)[C@H](CC(=O)O)NC(=O)[C@H](Cc1ccc(O)cc1)NC(=O)[C@H](Cc1ccccc1)NC(=O)[C@@H](NC(=O)CNC(=O)[C@@H]1CCCN1C(=O)CNC(=O)[C@H](CC(N)=O)NC(=O)[C@H](CCC(=O)O)NC(=O)CNC(=O)[C@H](CO)NC(=O)[C@@H](N)Cc1c[nH]c2ccccc12)[C@@H](C)O)C(=O)O [Pep22] (H-WSGENGPGTFYDYEA-OH; N-terminus and C-terminus assumed)
koff (Recombinant human EGFR): 0.0259 s⁻¹
kon (Recombinant human EGFR): 43500 M⁻¹ s⁻¹

C[C@H](N)C(=O)N[C@@H](CCC(=O)O)C(=O)N[C@@H](Cc1ccc(O)cc1)C(=O)N[C@@H](CC(=O)O)C(=O)N[C@@H](Cc1ccccc1)C(=O)N[C@@H](Cc1ccc(O)cc1)C(=O)NCC(=O)N1CCC[C@H]1C(=O)NCC(=O)N[C@@H](CC(N)=O)C(=O)N[C@@H](CCC(=O)O)C(=O)NCC(=O)N[C@@H](CO)C(=O)N[C@@H](Cc1c[nH]c2ccccc12)C(=O)O [Pep24] (H-AEYDFYGPGNEGSW-OH; N-terminus and C-terminus assumed)
koff (Recombinant human EGFR): 0.103 s⁻¹
kon (Recombinant human EGFR): 14300 M⁻¹ s⁻¹

SGEWAYDGYEPNFG (Synthetic amino acid - Control) [Pep25, scrambled peptide, negative control]
binding to cancer cell line, flow cytometry (MDA-MB-468 cells [7]): negligible binding
binding to cancer cell line, flow cytometry (A431 cells [8]): negligible binding
binding to cells, confocal fluorescence ([6]; FITC labeled peptide, 30 minutes at 37° C.): negligible binding
